From article PMC2120320 (The Journal of Cell Biology, 1994)

How the values were obtained:
[1] = test system: dynein-driven microtubule sliding in pf14 axonemes; test: Microtubule sliding velocity in isolated pf14 axonemes; format: biochemical, Chlamydomonas reinhardtii; conditions: pf14, 10 μM cAMP alone (Fig. 4), mean from 20 measurements
[2] = test system: dynein-driven microtubule sliding in spoke-deficient axonemes; test: Microtubule sliding velocity in spoke-deficient axonemes; format: biochemical, Chlamydomonas reinhardtii; conditions: for effect on velocity of microtubule sliding: spoke-deficient mutants (pf14, pf17)
[3] = biological target: PKI-sensitive kinase activity; conditions: demembranated ram sperm, treatment with cAMP; ref San Agustin and Witman, 1994; cited from earlier work
[4] = test system: catalytic subunit of cAPK; conditions: demembranated rat sperm; ref Horowitz et al., 1984; cited from earlier work
[5] = test system: dynein-driven microtubule sliding in wild-type 137c axonemes; test: Microtubule sliding velocity in wild-type; format: biochemical, Chlamydomonas reinhardtii
[6] = biological target: cyclic nucleotide-dependent kinases; conditions: inhibition of cyclic nucleotide-dependent kinases; ref Hidaka et al., 1984; cited from earlier work
protein kinase C = conditions: ref Hidaka et al., 1984; cited from earlier work
[7] = biological target: myosin light chain kinase; conditions: ref Hidaka et al., 1984; cited from earlier work
[8] = test system: dynein-driven microtubule sliding in pf17 axonemes; test: Microtubule sliding velocity in isolated pf17 axonemes; format: biochemical, Chlamydomonas reinhardtii
[9] = test system: dynein-driven microtubule sliding in pf14pf28 axonemes; test: Microtubule sliding velocity in pf14pf28 axonemes; format: biochemical, Chlamydomonas reinhardtii
[10] = test system: dynein-driven microtubule sliding in pf18 axonemes; test: Microtubule sliding velocity in pf18 axonemes; format: biochemical, Chlamydomonas reinhardtii; conditions: pf18, 100 nM PKI; Habermacher, G., unpublished results
inner arm dyneins = format: biochemical, Chlamydomonas reinhardtii
pf17 axonemes = test: In vitro reactivation of beating of pf17 axonemes; format: biochemical, Chlamydomonas reinhardtii; conditions: pf17 axonemes with PKI, preliminary experiments
[11] = biological target: cAMP-dependent protein kinase (cAPK); conditions: ref Glass et al., cited from earlier work

Compound: Nc1ncnc2c1ncn2[C@@H]1O[C@@H]2COP(=O)(O)O[C@H]2[C@H]1O [cAMP]
- effect on microtubule sliding velocity [1]: had no effect
- effect on RII-induced increase in sliding ([2]; 10 μM cAMP added to spokeless axonemes reconstituted with RII): reversed the effect of RII
- PKI-sensitive kinase activity remaining bound after cAMP [3]: ≤ 50%
- release of catalytic activity [4]: releases most of the catalytic activity

Compound: Cl.N=C(N)NCCNS(=O)(=O)c1cccc2cnccc12 [HA-1004, N-(2-guanidinoethyl)-5-isoquinolinesulfonamide hydrochloride]
- effect on microtubule sliding velocity ([5]; wild-type, 15 μM HA-1004, not shown): had no effect
- dose dependence of sliding velocity stimulation ([2]; spoke-deficient axonemes): dose dependent
- effect on velocity of microtubule sliding [2]: increased to wild-type level
- Ki [6]: 1000 to 3000 nM
- Ki (protein kinase C): 40 µM
- Ki [7]: 150 µM

Compound: RII: regulatory subunit of bovine cardiac type II cAPK (Promega)
- effect of RII on microtubule sliding ([2]; spoke-deficient axonemes, type-II regulatory subunit of cAPK): increased microtubule sliding to wild-type velocity

Compound: CC1CNCCN1S(=O)(=O)c1cccc2cnccc12 (centres unmarked) [H-7]
- effect on sliding velocity ([2]; H-7, spoke-deficient axonemes, data not shown): increases
- effect on velocity of microtubule sliding [2]: increased to wild-type level

Compound: Thr-Tyr-Ala-Asp-Phe-Ile-Ala- Ser-Gly-Arg-Thr-Gly-A_rg-Arg-Aan-Ala-Ile-NH2 [PKI, PKI(6-22)amide]
- efficacy of PKI versus NAcPKI ([8]; pf17, 100 nM (Fig. 2a)): no detectable difference
- effect on microtubule sliding velocity ([8]; pf17, 100 nM peptide (Fig. 2a), PKI and NAcPKI P < 0.01 vs control or triAlaPKI): significantly increased
- effect on microtubule sliding velocity ([5]; wild-type 137c, 0-200 nM PKI (Fig. 2b)): did not affect
- effect on microtubule sliding velocity ([9]; pf14pf28, 100 nM PKI (Fig. 5), P < 0.001): significantly increased
- effect on microtubule sliding vs pf28 control velocity ([9]; pf14pf28, PKI): increased microtubule sliding to control (pf28) velocity
- effect on velocity of microtubule sliding [10]: significantly increased to wild-type levels
- dose dependence of sliding velocity stimulation ([2]; spoke-deficient axonemes): dose-dependent
- effect on velocity of microtubule sliding [2]: increased to wild-type level
- sliding velocity with control dynein on extracted PKI-treated axonemes (PKIAxos) (inner arm dyneins; pf14pf28, 100 nM PKI (Fig. 6), two experiments pooled): only slow
- sliding velocity of PKI-treated axonemes before extraction vs control axonemes (inner arm dyneins; pf14pf28, 100 nM PKI, Pre-Extr (Fig. 6), P < 0.05): significantly greater
- reactivation of in vitro beating (pf17 axonemes): unable to reactivate
- Ki ([11]; inhibition of cAPK, 1989): 1.6 to 2.5 nM
- specificity of cAPK inhibition [11]; 1986: high degree of specificity
